Source: article PMC3038857, “Using Nuclear Receptor Activity to Stratify Hepatocarcinogens” (PLoS ONE, 2011)
Like-named read-outs stand apart in the source and are kept apart here.

Key:
[1] = biological target: T1, PXR (NR1I2) (Homo sapiens, UniProt O75469); assay: ATG_PXRE_CIS: Factorial reporter gene assay (HepG2); assay type: cell-based; set-up: endogenous in cells; host or cells: HepG2
T1 sequence (O75469 1-434): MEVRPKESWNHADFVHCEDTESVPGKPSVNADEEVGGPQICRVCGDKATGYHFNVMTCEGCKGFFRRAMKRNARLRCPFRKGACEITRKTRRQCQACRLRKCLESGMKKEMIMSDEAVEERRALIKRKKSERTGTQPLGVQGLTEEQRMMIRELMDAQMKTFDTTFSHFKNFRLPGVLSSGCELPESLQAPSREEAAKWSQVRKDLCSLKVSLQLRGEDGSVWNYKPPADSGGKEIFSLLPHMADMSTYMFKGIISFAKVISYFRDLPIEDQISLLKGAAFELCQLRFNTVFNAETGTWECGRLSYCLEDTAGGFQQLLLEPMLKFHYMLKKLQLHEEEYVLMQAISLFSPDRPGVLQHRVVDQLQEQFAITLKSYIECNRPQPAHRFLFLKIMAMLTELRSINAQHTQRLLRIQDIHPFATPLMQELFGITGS
Experimental: A multiple reporter transcription unit (MRTU) library consisting of 48 transcription factor binding sites was transfected into the HepG2 human liver hepatoma cell line. In addition to the cis-acting reporter genes (CIS), a modification of the approach was used to generate a trans-system (TRANS) with a mammalian one-hybrid assay consisting of an additional 25 MRTU library reporting the activity of nuclear receptor super-family members. […] These assays were performed by Attagene Inc. (Morrisville NC) under contract to EPA.
In addition to the cis-acting reporter genes (CIS), a modification of the approach was used to generate a trans-system (TRANS) with a mammalian one-hybrid assay consisting of an additional 25 MRTU library reporting the activity of nuclear receptor super-family members. […] Chemicals were then tested in the CIS and TRANS assays at seven concentrations starting at the MTC and followed by three-fold serial dilutions. These assays were performed by Attagene Inc. (Morrisville NC) under contract to EPA. Detailed description of the methods, data and analysis methods for this dataset will be presented in a separate publication.

[2] = test system: Rat Liver; settings: ref ToxRefDB, cited from earlier work
[3] = test system: Rat Liver; settings: ref ToxRefDB, cited from earlier work; remark: listed apart in the source
[4] = test system: Rat Liver; settings: ref ToxRefDB, cited from earlier work; remark: listed apart in the source
[5] = test system: Mouse Liver; settings: liver, ref ToxRefDB, cited from earlier work
[6] = test system: CYP2B6; assay: CLZD_CYP2B6: Change in expression of CYP2B6 (primary human hepatocytes); assay type: cell-based; settings: 24 hr
Experimental: This is a collection of multiplexed gene expression assays focused on Phase I and II xenobiotic metabolizing enzymes and transporters. Human primary cell cultures were treated with chemicals at 5 concentrations (0.004-40 [drawing 42] M) for 6, 24 and 48 hr. Concentration- and time-response profiles of chemicals were measured by the expression of key nuclear receptor target genes, activities of CYP1A enzymes (EROD), and cell morphology. Fourteen gene targets were monitored by quantitative nuclease protection assay including: six representative cytochrome P-450 genes, four hepatic transporters, three Phase II conjugating enzymes, and one endogenous metabolism gene involved in cholesterol synthesis. The target genes associated with nuclear receptor pathways are as follows: [drawing 43] and [drawing 44] with [drawing 45]; [drawing 46] , [drawing 47] , [drawing 48] , [drawing 49] , [drawing 50] and [drawing 51] with [drawing 52]; [drawing 53] , [drawing 54] , [drawing 55] and [drawing 56] with [drawing 57]; [drawing 58] with [drawing 59]; and [drawing 60] with [drawing 61] . Assays were run in primary human hepatocyte cultures by CellzDirect Invitrogen Inc. (Durham, NC), in collaboration with EPA.
Multiplexed Gene Expression in Human Primary Hepatocytes: This is a collection of multiplexed gene expression assays focused on Phase I and II metabolic enzymes and transporters. […] Fourteen gene targets were monitored by quantitative nuclease protection assay: six representative cytochrome P450 genes, four hepatic transporters, three Phase II conjugating enzymes, and one endogenous metabolism gene involved in cholesterol synthesis. Cells were exposed at 5 concentrations (0.004-40 µM) for 6, 24 or 48 hr. Gene targets are sentinels for five nuclear receptor signaling pathways: AhR, CAR, PXR, FXR, and PPARα. All gene are associated with nuclear receptor pathways: CYP1A1 and CYP1A2 with AHR; ABCB1, ABCG2, CYP2B6, CYP2C9, CYP2C19 and UGT1A1 with CAR; CYP3A4, GSTA2, SLCO1B1 and SULT2A1 with PXR; HMGCS2 with PPARA; and ABCB11 with FXR. […] Detailed description of the methods, data and analysis methods for this dataset will be presented in a separate publication.

[7] = rat chronic study, liver, coded 6 / 0, code not explained in table
[8] = rat chronic study, liver, neoplastic lesion, coded 6 / 0, code not explained in the table
[9] = rat chronic study, liver, any lesion, coded 6 / 0, code not explained in the table
[10] = rat chronic study, liver, preneoplastic lesion, coded 6 / 0, code not explained in the table
[11] = mouse chronic study, coded 6 / Inf, code not explained in table
[12] = mouse chronic study, any lesion, coded 6 / Inf, code not explained in the table

CNC(=O)N(C)c1nnc(C(C)(C)C)s1 [r293]
ATG_PXRE_CIS ([1]; HepG2 reporter): 4.357

CCC(C)(NC(=O)c1cc(Cl)c(C)c(Cl)c1)C(=O)CCl (stereo not shown) [chemical 320]
CHR_Rat_Liver_3_NeoplasticLesion [2, 7]: 0
CHR_Rat_Liver_1_AnyLesion [3, 7]: 0
CHR_Rat_Liver_2_PreneoplasticLesion [4, 7]: 0

FC(F)C(F)(F)OCC(Cn1cncn1)c1ccc(Cl)cc1Cl (stereo not shown) [chemical 292]
CHR_Rat_Liver_3_NeoplasticLesion [2, 7]: 0
CHR_Rat_Liver_1_AnyLesion [3, 7]: 6
CHR_Rat_Liver_2_PreneoplasticLesion [4, 7]: 6

CCNc1nc(Cl)nc(NC(C)C)n1 [Dataset S3 row 21]
CHR_Rat_Liver_3_NeoplasticLesion [2, 8]: 0
CHR_Rat_Liver_1_AnyLesion [3, 9]: 0
CHR_Rat_Liver_2_PreneoplasticLesion [4, 10]: 0

CCC(=O)Nc1ccc(Cl)c(Cl)c1 [r258]
CHR_Rat_Liver_3_NeoplasticLesion ([2]; rat, chronic study): 0
CHR_Rat_Liver_1_AnyLesion ([3]; rat, chronic study): 6
CHR_Rat_Liver_2_PreneoplasticLesion ([4]; rat, chronic study): 6
ATG_PXRE_CIS ([1]; HepG2): 4.337

CN(C)C(=S)SSC(=S)N(C)C [chemical 302]
CHR_Rat_Liver_3_NeoplasticLesion [2, 7]: 0
CHR_Rat_Liver_1_AnyLesion [3, 7]: 6
CHR_Rat_Liver_2_PreneoplasticLesion [4, 7]: 6

CNC(=O)ON=C(SC)C(=O)N(C)C [r231]
CHR_Rat_Liver_3_NeoplasticLesion ([2]; rat, chronic study): 0
CHR_Rat_Liver_1_AnyLesion ([3]; rat, chronic study): 0
CHR_Rat_Liver_2_PreneoplasticLesion ([4]; rat, chronic study): 0
ATG_PXRE_CIS ([1]; HepG2): 4.481

CNC(=O)ON=C(C)SC [row 200]
CHR_Rat_Liver_3_NeoplasticLesion ([2]; chronic rat study, liver): 0
CHR_Rat_Liver_1_AnyLesion ([3]; chronic rat study, liver): 0
CHR_Rat_Liver_2_PreneoplasticLesion ([4]; chronic rat study, liver): 0

O=C(O)COc1ccc(Cl)cc1Cl [Dataset S3 row 2]
CHR_Rat_Liver_3_NeoplasticLesion [2, 8]: 0
CHR_Rat_Liver_1_AnyLesion [3, 9]: 6
CHR_Rat_Liver_2_PreneoplasticLesion [4, 10]: 0

CNC(=O)ON=CC(C)(C)SC [Dataset S3 row 16]
CHR_Rat_Liver_3_NeoplasticLesion [2, 8]: 0
CHR_Rat_Liver_1_AnyLesion [3, 9]: 0
CHR_Rat_Liver_2_PreneoplasticLesion [4, 10]: 0

COC=C(C(=O)OC)c1ccccc1Oc1cc(Oc2ccccc2C#N)ncn1 [Dataset S3 row 24]
CHR_Rat_Liver_3_NeoplasticLesion [2, 8]: 0
CHR_Rat_Liver_1_AnyLesion [3, 9]: 6
CHR_Rat_Liver_2_PreneoplasticLesion [4, 10]: 6

Oc1cc(Cl)ccc1Oc1ccc(Cl)cc1Cl [chemical 312]
CHR_Rat_Liver_3_NeoplasticLesion [2, 7]: 0
CHR_Rat_Liver_1_AnyLesion [3, 7]: 6
CHR_Rat_Liver_2_PreneoplasticLesion [4, 7]: 0

CCCN(CCC)c1c([N+](=O)[O-])cc(C(F)(F)F)cc1[N+](=O)[O-] [chemical 316]
CHR_Rat_Liver_3_NeoplasticLesion [2, 7]: 0
CHR_Rat_Liver_1_AnyLesion [3, 7]: 0
CHR_Rat_Liver_2_PreneoplasticLesion [4, 7]: 0

CCON=C(CC)C1=C(O)CC(c2c(C)cc(C)cc2C)CC1=O (stereo not shown) [chemical 303]
CHR_Rat_Liver_3_NeoplasticLesion [2, 7]: 0
CHR_Rat_Liver_1_AnyLesion [3, 7]: 6
CHR_Rat_Liver_2_PreneoplasticLesion [4, 7]: 6

CCNc1nc(NC(C)C)nc(SC)n1 [Dataset S3 row 17]
CHR_Rat_Liver_3_NeoplasticLesion [2, 8]: 6
CHR_Rat_Liver_1_AnyLesion [3, 9]: 6
CHR_Rat_Liver_2_PreneoplasticLesion [4, 10]: 6

N#C/N=C1\SCCN1Cc1ccc(Cl)nc1 [chemical 295]
CHR_Rat_Liver_3_NeoplasticLesion [2, 7]: 0
CHR_Rat_Liver_1_AnyLesion [3, 7]: 6
CHR_Rat_Liver_2_PreneoplasticLesion [4, 7]: 0
CHR_Mouse_Liver_1_AnyLesion [5, 11]: 6

COC(=O)c1ccccc1S(=O)(=O)NC(=O)N(C)c1nc(C)nc(OC)n1 [chemical 308]
CHR_Rat_Liver_3_NeoplasticLesion [2, 7]: 0
CHR_Rat_Liver_1_AnyLesion [3, 7]: 0
CHR_Rat_Liver_2_PreneoplasticLesion [4, 7]: 0

CCOCN(C(=O)CCl)c1c(C)cccc1CC [Dataset S3 row 12]
CHR_Rat_Liver_3_NeoplasticLesion [2, 8]: 6
CHR_Rat_Liver_1_AnyLesion [3, 9]: 6
CHR_Rat_Liver_2_PreneoplasticLesion [4, 10]: 6

CC1(C)CCC(=Cc2ccc(Cl)cc2)C1(O)Cn1cncn1 (stereo not shown) [chemical 318]
CHR_Rat_Liver_3_NeoplasticLesion [2, 7]: 0
CHR_Rat_Liver_1_AnyLesion [3, 7]: 6
CHR_Rat_Liver_2_PreneoplasticLesion [4, 7]: 0
CHR_Mouse_Liver_1_AnyLesion [5, 11]: 6

COc1cc(OC)nc(NC(=O)[N-]S(=O)(=O)c2ncccc2OCC(F)(F)F)n1.[Na+] [chemical 314]
CHR_Rat_Liver_3_NeoplasticLesion [2, 7]: 0
CHR_Rat_Liver_1_AnyLesion [3, 7]: 0
CHR_Rat_Liver_2_PreneoplasticLesion [4, 7]: 0

CSc1nnc(C(C)(C)C)c(=O)n1N [row 209]
CHR_Rat_Liver_3_NeoplasticLesion ([2]; chronic rat study, liver): 0
CHR_Rat_Liver_1_AnyLesion ([3]; chronic rat study, liver): 0
CLZD_CYP2B6_24 [6]: 5.115
CHR_Rat_Liver_2_PreneoplasticLesion ([4]; chronic rat study, liver): 0

CCS(=O)(=O)c1cccnc1S(=O)(=O)NC(=O)Nc1nc(OC)cc(OC)n1 [r281]
CHR_Rat_Liver_3_NeoplasticLesion ([2]; chronic study, rat liver): 0
CHR_Rat_Liver_1_AnyLesion ([3]; chronic study, rat liver): 6
CHR_Rat_Liver_2_PreneoplasticLesion ([4]; chronic study, rat liver): 6

c1ccc2[nH]c(-c3cscn3)nc2c1 [chemical 294]
CHR_Rat_Liver_3_NeoplasticLesion [2, 7]: 0
CHR_Rat_Liver_1_AnyLesion [3, 7]: 6
CHR_Rat_Liver_2_PreneoplasticLesion [4, 7]: 0

CCCOC(=O)NCCCN(C)C.Cl [r257]
CHR_Rat_Liver_3_NeoplasticLesion ([2]; rat, chronic study): 0
CHR_Rat_Liver_1_AnyLesion ([3]; rat, chronic study): 0
CHR_Rat_Liver_2_PreneoplasticLesion ([4]; rat, chronic study): 0

Clc1nc(Cl)nc(Nc2ccccc2Cl)n1 [Dataset S3 row 19]
CHR_Rat_Liver_3_NeoplasticLesion [2, 8]: 0
CHR_Rat_Liver_1_AnyLesion [3, 9]: 0
CHR_Rat_Liver_2_PreneoplasticLesion [4, 10]: 0

CO/N=C(/C(=O)OC)c1ccccc1CON=C(C)c1cccc(C(F)(F)F)c1 [chemical 313]
CHR_Rat_Liver_3_NeoplasticLesion [2, 7]: 0
CHR_Rat_Liver_1_AnyLesion [3, 7]: 0
CHR_Rat_Liver_2_PreneoplasticLesion [4, 7]: 0
CHR_Mouse_Liver_1_AnyLesion [5, 11]: 6

O=C(O)CCCOc1ccc(Cl)cc1Cl [Dataset S3 row 3]
CHR_Rat_Liver_3_NeoplasticLesion [2, 8]: 0
CHR_Rat_Liver_1_AnyLesion [3, 9]: 6
CHR_Rat_Liver_2_PreneoplasticLesion [4, 10]: 0
CHR_Mouse_Liver_1_AnyLesion [5, 12]: 6

O=C(O)c1c(Cl)ccc2cc(Cl)cnc12 [r276]
CHR_Rat_Liver_3_NeoplasticLesion ([2]; chronic study, rat liver): 0
CHR_Rat_Liver_1_AnyLesion ([3]; chronic study, rat liver): 0
CHR_Rat_Liver_2_PreneoplasticLesion ([4]; chronic study, rat liver): 0

COC(=O)c1ccc(CNS(C)(=O)=O)cc1S(=O)(=O)NC(=O)Nc1nc(OC)cc(OC)n1 [row 194]
CHR_Rat_Liver_3_NeoplasticLesion ([2]; chronic rat study, liver): 0
CHR_Rat_Liver_1_AnyLesion ([3]; chronic rat study, liver): 0
CHR_Rat_Liver_2_PreneoplasticLesion ([4]; chronic rat study, liver): 0
CHR_Mouse_Liver_1_AnyLesion ([5]; chronic mouse study): 6

CNC(=O)Oc1cccc2c1OC(C)(C)O2 [Dataset S3 row 25]
CHR_Rat_Liver_3_NeoplasticLesion [2, 8]: 0
CHR_Rat_Liver_1_AnyLesion [3, 9]: 0
CHR_Rat_Liver_2_PreneoplasticLesion [4, 10]: 0

C/C(=N\C#N)N(C)Cc1ccc(Cl)nc1 [Dataset S3 row 11]
CHR_Rat_Liver_3_NeoplasticLesion [2, 8]: 0
CHR_Rat_Liver_1_AnyLesion [3, 9]: 6
CHR_Rat_Liver_2_PreneoplasticLesion [4, 10]: 0
CHR_Mouse_Liver_1_AnyLesion [5, 12]: 6

COC(=O)NS(=O)(=O)c1ccc(N)cc1 [Dataset S3 row 20]
CHR_Rat_Liver_3_NeoplasticLesion [2, 8]: 0
CHR_Rat_Liver_1_AnyLesion [3, 9]: 0
CHR_Rat_Liver_2_PreneoplasticLesion [4, 10]: 0
CHR_Mouse_Liver_1_AnyLesion [5, 12]: 6

CCc1cccc(CC)c1N(COC)C(=O)CCl [Dataset S3 row 15]
CHR_Rat_Liver_3_NeoplasticLesion [2, 8]: 0
CHR_Rat_Liver_1_AnyLesion [3, 9]: 6
CHR_Rat_Liver_2_PreneoplasticLesion [4, 10]: 0

COCCO [row 203]
ATG_PXRE_CIS ([1]; HepG2): 4.602

CSC(=O)c1cccc2nnsc12 [Dataset S3 row 13]
CHR_Rat_Liver_3_NeoplasticLesion [2, 8]: 0
CHR_Rat_Liver_1_AnyLesion [3, 9]: 6
CHR_Rat_Liver_2_PreneoplasticLesion [4, 10]: 0
CHR_Mouse_Liver_1_AnyLesion [5, 12]: 6
